Reference: PMC9481151, “Discovery of new symmetrical and asymmetrical nitrile-containing 1,4-dihydropyridine derivatives as dual kinases and P-glycoprotein inhibitors: synthesis, in vitro assays, and in silico studies” (Journal of Enzyme Inhibition and Medicinal Chemistry, 2022)

Columns and labels:
CCRF-CEM = experiment: NCI single dose (10 µM) SRB screen; format: cell-based, human; conditions: leukaemia, 48 h
HL-60(TB) = experiment: NCI single dose (10 µM) SRB screen; format: cell-based, human; conditions: leukaemia, 48 h
K-562 = experiment: NCI single dose (10 µM) SRB screen; format: cell-based, human; conditions: leukaemia, 48 h
MOLT-4 = experiment: NCI single dose (10 µM) SRB screen; format: cell-based, human; conditions: leukaemia, 48 h
RPMI-8226 = experiment: NCI single dose (10 µM) SRB screen; format: cell-based, human; conditions: leukaemia, 48 h
SR = experiment: NCI single dose (10 µM) SRB screen; format: cell-based, human; conditions: leukaemia, 48 h
A549/ATCC = experiment: NCI single dose (10 µM) SRB screen; format: cell-based, human; conditions: non-small cell lung cancer, 48 h
EKVX = experiment: NCI single dose (10 µM) SRB screen; format: cell-based, human; conditions: non-small cell lung cancer, 48 h
HOP-62 = experiment: NCI single dose (10 µM) SRB screen; format: cell-based, human; conditions: non-small cell lung cancer, 48 h
HOP-92 = experiment: NCI single dose (10 µM) SRB screen; format: cell-based, human; conditions: non-small cell lung cancer, 48 h
NCI-H226 = experiment: NCI single dose (10 µM) SRB screen; format: cell-based, human; conditions: non-small cell lung cancer, 48 h
NCI-H23 = experiment: NCI single dose (10 µM) SRB screen; format: cell-based, human; conditions: non-small cell lung cancer, 48 h
NCI-H322M = experiment: NCI single dose (10 µM) SRB screen; format: cell-based; conditions: non-small cell lung cancer, 48 h
NCI-H460 = experiment: NCI single dose (10 µM) SRB screen; format: cell-based, human; conditions: non-small cell lung cancer, 48 h
NCI-H522 = experiment: NCI single dose (10 µM) SRB screen; format: cell-based, human; conditions: non-small cell lung cancer, 48 h
COLO 205 = experiment: NCI single dose (10 µM) SRB screen; format: cell-based, human; conditions: colon cancer, 48 h
HCC-2998 = experiment: NCI single dose (10 µM) SRB screen; format: cell-based, human; conditions: colon cancer, 48 h
HCT-116 = experiment: NCI single dose (10 µM) SRB screen; format: cell-based, human; conditions: colon cancer, 48 h
HCT-15 = experiment: NCI single dose (10 µM) SRB screen; format: cell-based, human; conditions: colon cancer, 48 h
HT29 = experiment: NCI single dose (10 µM) SRB screen; format: cell-based, human; conditions: colon cancer, 48 h
KM12 = experiment: NCI single dose (10 µM) SRB screen; format: cell-based, human; conditions: colon cancer, 48 h
SW-620 = experiment: NCI single dose (10 µM) SRB screen; format: cell-based, human; conditions: colon cancer, 48 h
SF-268 = experiment: NCI single dose (10 µM) SRB screen; format: cell-based, human; conditions: CNS cancer, 48 h
SF-295 = experiment: NCI single dose (10 µM) SRB screen; format: cell-based, human; conditions: CNS cancer, 48 h
SF-539 = experiment: NCI single dose (10 µM) SRB screen; format: cell-based, human; conditions: CNS cancer, 48 h
SNB-19 = experiment: NCI single dose (10 µM) SRB screen; format: cell-based, human; conditions: CNS cancer, 48 h
SNB-75 = experiment: NCI single dose (10 µM) SRB screen; format: cell-based, human; conditions: CNS cancer, 48 h
U251 = experiment: NCI single dose (10 µM) SRB screen; format: cell-based, human; conditions: CNS cancer, 48 h
LOX IMVI = experiment: NCI single dose (10 µM) SRB screen; format: cell-based, human; conditions: melanoma, 48 h
MALME-3M = experiment: NCI single dose (10 µM) SRB screen; format: cell-based, human; conditions: melanoma, 48 h
M14 = experiment: NCI single dose (10 µM) SRB screen; format: cell-based, human; conditions: melanoma, 48 h
MDA-MB-435 = experiment: NCI single dose (10 µM) SRB screen; format: cell-based, human; conditions: melanoma, 48 h
SK-MEL-2 = experiment: NCI single dose (10 µM) SRB screen; format: cell-based, human; conditions: melanoma, 48 h
SK-MEL-28 = experiment: NCI single dose (10 µM) SRB screen; format: cell-based, human; conditions: melanoma, 48 h
SK-MEL-5 = experiment: NCI single dose (10 µM) SRB screen; format: cell-based, human; conditions: melanoma, 48 h
UACC-257 = experiment: NCI single dose (10 µM) SRB screen; format: cell-based, human; conditions: melanoma, 48 h
UACC-62 = experiment: NCI single dose (10 µM) SRB screen; format: cell-based, human; conditions: melanoma, 48 h
IGROV1 = experiment: NCI single dose (10 µM) SRB screen; format: cell-based, human; conditions: ovarian cancer, 48 h
OVCAR-3 = experiment: NCI single dose (10 µM) SRB screen; format: cell-based, human; conditions: ovarian cancer, 48 h
OVCAR-4 = experiment: NCI single dose (10 µM) SRB screen; format: cell-based, human; conditions: ovarian cancer, 48 h
OVCAR-5 = experiment: NCI single dose (10 µM) SRB screen; format: cell-based, human; conditions: ovarian cancer, 48 h
OVCAR-8 = experiment: NCI single dose (10 µM) SRB screen; format: cell-based, human; conditions: ovarian cancer, 48 h
NCI/ADR-RES = experiment: NCI single dose (10 µM) SRB screen; format: cell-based, human; conditions: ovarian cancer, 48 h
SK-OV-3 = experiment: NCI single dose (10 µM) SRB screen; format: cell-based, human; conditions: ovarian cancer, 48 h
786-0 = experiment: NCI single dose (10 µM) SRB screen; format: cell-based, human; conditions: renal cancer, 48 h
A498 = experiment: NCI single dose (10 µM) SRB screen; format: cell-based, human; conditions: renal cancer, 48 h
ACHN = experiment: NCI single dose (10 µM) SRB screen; format: cell-based, human; conditions: renal cancer, 48 h
CAKI-1 = experiment: NCI single dose (10 µM) SRB screen; format: cell-based, human; conditions: renal cancer, 48 h
RXF 393 = experiment: NCI single dose (10 µM) SRB screen; format: cell-based, human; conditions: renal cancer, 48 h
SN12C = experiment: NCI single dose (10 µM) SRB screen; format: cell-based, human; conditions: renal cancer, 48 h
TK-10 = experiment: NCI single dose (10 µM) SRB screen; format: cell-based, human; conditions: renal cancer, 48 h
UO-31 = experiment: NCI single dose (10 µM) SRB screen; format: cell-based, human; conditions: renal cancer, 48 h
PC-3 = experiment: NCI single dose (10 µM) SRB screen; format: cell-based, human; conditions: prostate cancer, 48 h
DU-145 = experiment: NCI single dose (10 µM) SRB screen; format: cell-based, human; conditions: prostate cancer, 48 h
MCF7 = experiment: NCI single dose (10 µM) SRB screen; format: cell-based, human; conditions: breast cancer, 48 h
MDA-MB-231 = experiment: NCI single dose (10 µM) SRB screen; format: cell-based, human; conditions: breast cancer, 48 h
HS578T = experiment: NCI single dose (10 µM) SRB screen; format: cell-based, human; conditions: breast cancer, 48 h
BT-549 = experiment: NCI single dose (10 µM) SRB screen; format: cell-based, human; conditions: breast cancer, 48 h
T-47D = experiment: NCI single dose (10 µM) SRB screen; format: cell-based, human; conditions: breast cancer, 48 h
MDA-MB-468 = experiment: NCI single dose (10 µM) SRB screen; format: cell-based, human; conditions: breast cancer, 48 h
NCI 60 cancer cell lines = experiment: NCI single dose (10 µM) SRB screen, mean over panel; format: cell-based, human; conditions: mean over 60 cell lines, 48 h
Staphylococcus aureus = experiment: Agar well diffusion method
Bacillus subtilis = experiment: Agar well diffusion method; conditions: relative to ciprofloxacin
Escherichia coli = experiment: Agar well diffusion method; conditions: relative to ciprofloxacin
Pseudomonas aeruginosa = experiment: Agar well diffusion method; conditions: relative to ciprofloxacin
Candida albicans = experiment: Agar well diffusion method; conditions: relative to clotrimazole
Aspergillus flavus = experiment: Agar well diffusion method; conditions: relative to clotrimazole

## CCCC1=C(C(=O)OCC)C(c2cccc(C#N)c2)C(C(=O)OC)=C(C)N1 (racemic) [Compound 2f, (±)-3-Ethyl 5-methyl 4-(3-cyanophenyl)-6-methyl-2-propyl-1,4-dihydropyridine-3,5-dicarboxylate]
CCRF-CEM
  GI% CCRF-CEM: – (Only GI% ≥ 10 are shown)
HL-60(TB)
  GI% HL-60(TB): 11%
K-562
  GI% K-562: – (Only GI% ≥ 10 are shown)
MOLT-4
  GI% MOLT-4: 14%
RPMI-8226
  GI% RPMI-8226: 12%
SR
  GI% SR: – (Only GI% ≥ 10 are shown)
A549/ATCC
  GI% A549/ATCC: – (Only GI% ≥ 10 are shown)
EKVX
  GI% EKVX: – (Only GI% ≥ 10 are shown)
HOP-62
  GI% HOP-62: – (Only GI% ≥ 10 are shown)
HOP-92
  GI% HOP-92: – (Only GI% ≥ 10 are shown)
NCI-H226
  GI% NCI-H226: – (Only GI% ≥ 10 are shown)
NCI-H23
  GI% NCI-H23: – (Only GI% ≥ 10 are shown)
NCI-H322M
  GI% NCI-H322M: – (Only GI% ≥ 10 are shown)
NCI-H460
  GI% NCI-H460: – (Only GI% ≥ 10 are shown)
NCI-H522
  GI% NCI-H522: – (Only GI% ≥ 10 are shown)
COLO 205
  GI% COLO 205: – (Only GI% ≥ 10 are shown)
HCC-2998
  GI% HCC-2998: – (Only GI% ≥ 10 are shown)
HCT-116
  GI% HCT-116: 11%
HCT-15
  GI% HCT-15: – (Only GI% ≥ 10 are shown)
HT29
  GI% HT29: – (Only GI% ≥ 10 are shown)
KM12
  GI% KM12: – (Only GI% ≥ 10 are shown)
SW-620
  GI% SW-620: – (Only GI% ≥ 10 are shown)
SF-268
  GI% SF-268: – (Only GI% ≥ 10 are shown)
SF-295
  GI% SF-295: – (Only GI% ≥ 10 are shown)
SF-539
  GI% SF-539: – (Only GI% ≥ 10 are shown)
SNB-19
  GI% SNB-19: – (Only GI% ≥ 10 are shown)
SNB-75
  GI% SNB-75: 37%
U251
  GI% U251: – (Only GI% ≥ 10 are shown)
LOX IMVI
  GI% LOX IMVI: – (Only GI% ≥ 10 are shown)
MALME-3M
  GI% MALME-3M: – (Only GI% ≥ 10 are shown)
M14
  GI% M14: – (Only GI% ≥ 10 are shown)
MDA-MB-435
  GI% MDA-MB-435: – (Only GI% ≥ 10 are shown)
SK-MEL-2
  GI% SK-MEL-2: – (Only GI% ≥ 10 are shown)
SK-MEL-28
  GI% SK-MEL-28: – (Only GI% ≥ 10 are shown)
SK-MEL-5
  GI% SK-MEL-5: – (Only GI% ≥ 10 are shown)
UACC-257
  GI% UACC-257: – (Only GI% ≥ 10 are shown)
UACC-62
  GI% UACC-62: 21%
IGROV1
  GI% IGROV1: – (Only GI% ≥ 10 are shown)
OVCAR-3
  GI% OVCAR-3: – (Only GI% ≥ 10 are shown)
OVCAR-4
  GI% OVCAR-4: – (Only GI% ≥ 10 are shown)
OVCAR-5
  GI% OVCAR-5: – (Only GI% ≥ 10 are shown)
OVCAR-8
  GI% OVCAR-8: – (Only GI% ≥ 10 are shown)
NCI/ADR-RES
  GI% NCI/ADR-RES: – (Only GI% ≥ 10 are shown)
SK-OV-3
  GI% SK-OV-3: – (Only GI% ≥ 10 are shown)
786-0
  GI% 786-0: – (Only GI% ≥ 10 are shown)
A498
  GI% A498: – (Only GI% ≥ 10 are shown)
ACHN
  GI% ACHN: – (Only GI% ≥ 10 are shown)
CAKI-1
  GI% CAKI-1: 18%
RXF 393
  GI% RXF 393: – (Only GI% ≥ 10 are shown)
SN12C
  GI% SN12C: – (Only GI% ≥ 10 are shown)
TK-10
  GI% TK-10: – (Only GI% ≥ 10 are shown)
UO-31
  GI% UO-31: 13%
PC-3
  GI% PC-3: 23%
DU-145
  GI% DU-145: – (Only GI% ≥ 10 are shown)
MCF7
  GI% MCF7: – (Only GI% ≥ 10 are shown)
MDA-MB-231
  GI% MDA-MB-231: – (Only GI% ≥ 10 are shown)
HS578T
  GI% HS578T: – (Only GI% ≥ 10 are shown)
BT-549
  GI% BT-549: – (Only GI% ≥ 10 are shown)
T-47D
  GI% T-47D: – (Only GI% ≥ 10 are shown)
MDA-MB-468
  GI% MDA-MB-468: – (Only GI% ≥ 10 are shown)
NCI 60 cancer cell lines
  Mean GI%: 1%
other
  melting point: 121 to 122 °C
Staphylococcus aureus; Staphylococcus aureus, 24 h, read-out: Diameter of inhibition zone, S. aureus
  zone of inhibition at 1000 µg/mL: 6 mm
Staphylococcus aureus; relative to ciprofloxacin
  % activity index, S. aureus: 25%
Bacillus subtilis
  % activity index, B. subtilis: – (Values below 25 are of limited value and not shown as they refer either to inactive or non-diffusing compounds)
Escherichia coli
  % activity index, E. coli: – (Values below 25 are of limited value and not shown as they refer either to inactive or non-diffusing compounds)
Pseudomonas aeruginosa
  % activity index, P. aeruginosa: – (Values below 25 are of limited value and not shown as they refer either to inactive or non-diffusing compounds)
Candida albicans
  % activity index, C. albicans: – (Values below 25 are of limited value and not shown as they refer either to inactive or non-diffusing compounds)
Aspergillus flavus
  % activity index, A. flavus: – (Values below 25 are of limited value and not shown as they refer either to inactive or non-diffusing compounds)
